Laboratory results from US20100099673A1, “DECAHYDROQUINOLINE ANALOGS AS CB2 RECEPTOR MODULATORS, USEFUL IN THE TREATMENT OF PAIN, RESPIRATORY AND NON-RESPIRATORY DISEASES” (priority 2007, published 2010).
Like-named read-outs stand apart in the source and are kept apart here.

Tests used:
human CB2 = human CB2 (Homo sapiens, UniProt P34972); assay: Cyclic AMP assay (HTRF), CHO cells expressing human CB2; assay type: cell-based; details: for Emax: read-out: CB2 Emax
Experimental: (§1) Chinese Hamster Ovary cells (CHO) expressing human CB1 or human CB2 (3.3×10^5 cells/ml) were preincubated for 15 min at room temperature with tested agonist and 3-isobutyl-1-methylxanthine (IBMX; 200 μM) in phosphate buffered saline containing 1 mg/ml BSA (assay buffer) followed by 30 min incubation with forskolin in a total volume of 10 μl. The optimal forskolin concentration for each cell line was established in a separate experiment and adjusted to stimulate 70% of maximal cAMP response. cAMP content was measured using an HTRF assay (CisBio) according to the manufacturer's two step protocol.
(§2) In this assay, compounds of the invention have an IP ranging from 1 nM to >17000 nM. The Examples below have an IP ranging from 1 nM to >17000 nM.

human CB1 = human CB1 (Homo sapiens, UniProt P21554); assay: Cyclic AMP assay (HTRF), CHO cells expressing human CB1; assay type: cell-based
Chain of human CB1 (P21554 whole entry): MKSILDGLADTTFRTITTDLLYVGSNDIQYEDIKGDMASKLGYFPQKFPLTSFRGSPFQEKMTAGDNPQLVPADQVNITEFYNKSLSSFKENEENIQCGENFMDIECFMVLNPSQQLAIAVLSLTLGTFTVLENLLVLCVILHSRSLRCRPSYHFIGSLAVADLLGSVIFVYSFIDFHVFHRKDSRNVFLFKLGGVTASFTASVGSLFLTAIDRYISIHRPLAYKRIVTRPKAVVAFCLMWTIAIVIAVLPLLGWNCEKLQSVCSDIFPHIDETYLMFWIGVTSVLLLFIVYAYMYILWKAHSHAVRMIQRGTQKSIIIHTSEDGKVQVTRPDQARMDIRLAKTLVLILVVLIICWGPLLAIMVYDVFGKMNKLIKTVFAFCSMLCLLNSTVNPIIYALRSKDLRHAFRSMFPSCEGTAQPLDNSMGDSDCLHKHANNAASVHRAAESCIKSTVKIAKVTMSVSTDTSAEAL
Experimental: as §1, §2

[1] = IP of agonist in forskolin-stimulated cAMP HTRF assay, CHO cells expressing human CB2, read-out: CB2 (HTRF)
[2] = forskolin-stimulated cAMP HTRF assay, CHO cells expressing human CB2
[3] = IP of agonist in forskolin-stimulated cAMP HTRF assay, CHO cells expressing human CB1, read-out: CB1 (HTRF)

Chain of human CB2 (P34972 whole entry): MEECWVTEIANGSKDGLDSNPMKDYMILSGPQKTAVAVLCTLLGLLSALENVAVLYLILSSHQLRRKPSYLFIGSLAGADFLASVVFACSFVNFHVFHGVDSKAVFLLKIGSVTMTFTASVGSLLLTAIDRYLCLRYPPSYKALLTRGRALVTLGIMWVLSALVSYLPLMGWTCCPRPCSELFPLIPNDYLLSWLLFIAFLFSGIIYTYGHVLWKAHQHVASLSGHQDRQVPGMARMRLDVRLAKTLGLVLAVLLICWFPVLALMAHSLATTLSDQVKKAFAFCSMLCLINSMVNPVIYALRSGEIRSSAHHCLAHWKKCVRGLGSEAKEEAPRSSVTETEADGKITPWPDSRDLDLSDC

| Structure (SMILES) | EC50 (human CB2; [1]) | Emax (human CB2; [2]) | EC50 (human CB1; [3]) | EC50 (human CB2) | Emax (human CB2; CHO) | EC50 (human CB1) |
| --- | --- | --- | --- | --- | --- | --- |
| O=C(c1ccccc1)N1CCC(O)(c2cccnc2)[C@H]2CCCC[C@@H]21 (stereo in doubt) [Example 258, 1-benzoyl-4-pyridin-3-yldecahydroquinolin-4-ol] | 938 nM | 86% |  |  |  |  |
| O[C@]1(c2ccccc2)CCN(Cc2n[nH]c3ccccc23)[C@@H]2CCCC[C@@H]21 (stereo in doubt) [Example 274, 1-(1H-indazol-3-ylmethyl)-4-phenyldecahydroquinolin-4-ol] |  |  |  | 19 nM | 102% | > 17 µM |
| O=C(Nc1cccnc1)N1CC[C@](O)(c2ccccc2)[C@H]2CCCC[C@H]21 [Example 291, 4-hydroxy-4-phenyl-n-pyridin-3-yloctahydroquinoline-1(2H)-carboxamide] | 1100 nM |  | > 17 µM |  | 76% |  |

More lines, in order of falling EC50 (human CB2; [1]), values ahead:

| EC50 (human CB2; [1]) | Emax (human CB2; [2]) | EC50 (human CB1; [3]) | Structure (SMILES) | EC50 (human CB2) | Emax (human CB2; CHO) | EC50 (human CB1) |
| --- | --- | --- | --- | --- | --- | --- |
| 90 nM | 93% |  | O=C(c1ccccc1)N1CCC(O)(Cc2ccccc2)[C@H]2CCCC[C@@H]21 (stereo partly shown) [Example 260, 1-benozyl-4-benzyldecahydroquinolin-4-ol] |  |  |  |
| 41 nM | 101% | > 17 µM | Cn1cc(S(=O)(=O)N2CC[C@](O)(c3ccccc3)[C@H]3CCCC[C@H]32)c(C(F)(F)F)n1 (stereo in doubt) [Example 289, 1-{[1-methyl-3-(trifluoromethyl)-1h-pyrazol-4-yl]sulfonyl}-4-phenyldecahydroquinolin-4-ol] |  |  |  |
| 37 nM | 100% | > 17 µM | O=C(c1ccon1)N1CC[C@](O)(c2ccccc2)[C@H]2CCCC[C@H]21 (single isomer, unassigned) [Example 131, 1-(isoxazol-3-ylcarbonyl)-4-phenyldecahydroquinolin-4-ol] |  |  |  |
| 10 nM | 100% | 6.78 µM | O=C(c1cccnc1)N1CC[C@](O)(c2ccccc2)[C@H]2CCCC[C@H]21 (relative stereo) [Example 135, cis-4-phenyl-1-(pyridin-3-ylcarbonyl)decahydroquinolin-4-ol] |  |  |  |
| 1.3 nM | 99% | 10.5 µM | CC(C)(O)c1ccnc(N2CC[C@](O)(c3ccccc3)[C@H]3CCCC[C@H]32)c1 (relative stereo) [Example 287, (cis)-1-[4-(1-hydroxy-1-methylethyl)pyridin-2-yl]-4-phenyldecahydroquinolin-4-ol] |  |  |  |
